Measurements taken from US9919053B2, “Cabazitaxel composition” (SUPRATEK PHARMA INC., priority 2012, dated 2018).
Values after ≈ are worked out from the molar mass of the structure shown. Like-named read-outs stand apart in the source and are kept apart here.

How the values were obtained:
[1] = Stability of solution of cabazitaxel in aqueous SBECD (HPLC concentration over time); assay type: physicochemical; settings: 23° C.
Protocol: A solution containing 2.02 mg/mL cabazitaxel in 20% aqueous SBECD was prepared by sequential dissolving SBECD in water, and cabazitaxel in the resulting solution, followed by filtration through a 0.22 μm filter. Portions of the solution was subsequently diluted with water to form three solutions having the cabazitaxel concentration listed in the Table below, respectively. The solutions were incubated at temperature 23° C. and at selected time points were analyzed using the HPLC. All solutions were stable.

[2] = Equilibrium solubility of cabazitaxel in aqueous SBECD; assay type: physicochemical; settings: aqueous SBECD solution, 23 °C, aqueous with cosolvent or surfactant or cyclodextrin, thermodynamic from solid, read-out: Cabazitaxel concentration (equilibrium solubility)
Protocol: Excess of cabazitael was mixed with aqueous SBECD solutions for 16 hours at 23° C. The resulting suspension was filtered through a 0.22 μm filter, and the clear filtrate solution was analyzed by HPLC.

CO[C@H]1C(=O)[C@]2(C)[C@@H](OC)C[C@H]3OC[C@@]3(OC(C)=O)[C@H]2[C@H](OC(=O)c2ccccc2)[C@]2(O)C[C@H](OC(=O)[C@H](O)[C@@H](NC(=O)OC(C)(C)C)c3ccccc3)C(C)=C1C2(C)C [cabazitaxel, (1S,2S,3R,4S,7R,9S,10S,12R,15S)-4-(Acetyloxy)-15-{[(2R,3S)-3-{[(tert-butoxy)carbonyl]amino}-2-hydroxy-3-phenylpropanoyl]oxy}-1-hydroxy-9,12-dimethoxy-10,14,17,17-tetramethyl-11-oxo-6-oxatetracyclo[11.3.1.^03,10.0^4,7]heptadec-13-ene-2-yl benzoate]
Cabazitaxel concentration ([1]; first dilution (0.098 mg/mL at 0 h) of 2.02 mg/mL in 20% SBECD, time 0 hours): 0.098 mg/mL | Cabazitaxel concentration ([1]; first dilution (0.098 mg/mL at 0 h), time 11 hours): 0.099 mg/mL | Cabazitaxel concentration ([1]; first dilution (0.098 mg/mL at 0 h), time 24.5 hours): 0.099 mg/mL | Cabazitaxel concentration ([1]; first dilution (0.098 mg/mL at 0 h), time 36 hours): 0.098 mg/mL | Cabazitaxel concentration ([1]; first dilution (0.098 mg/mL at 0 h), time 45 hours): 0.098 mg/mL | Cabazitaxel concentration ([1]; first dilution (0.098 mg/mL at 0 h), time 100 hours): 0.097 mg/mL | Cabazitaxel concentration ([1]; first dilution (0.098 mg/mL at 0 h), time 120 hours): 0.097 mg/mL | Cabazitaxel concentration ([1]; second dilution (0.268 mg/mL at 0 h) of 2.02 mg/mL in 20% SBECD, time 0 hours): 0.268 mg/mL | Cabazitaxel concentration ([1]; second dilution (0.268 mg/mL at 0 h), time 11 hours): 0.268 mg/mL | Cabazitaxel concentration ([1]; second dilution (0.268 mg/mL at 0 h), time 24.5 hours): 0.269 mg/mL | Cabazitaxel concentration ([1]; second dilution (0.268 mg/mL at 0 h), time 36 hours): 0.268 mg/mL | Cabazitaxel concentration ([1]; second dilution (0.268 mg/mL at 0 h), time 45 hours): 0.268 mg/mL | Cabazitaxel concentration ([1]; second dilution (0.268 mg/mL at 0 h), time 100 hours): 0.263 mg/mL | Cabazitaxel concentration ([1]; second dilution (0.268 mg/mL at 0 h), time 120 hours): 0.266 mg/mL | Cabazitaxel concentration ([1]; third dilution (0.510 mg/mL at 0 h) of 2.02 mg/mL in 20% SBECD, time 0 hours): 0.510 mg/mL | Cabazitaxel concentration ([1]; third dilution (0.510 mg/mL at 0 h), time 11 hours): 0.515 mg/mL | Cabazitaxel concentration ([1]; third dilution (0.510 mg/mL at 0 h), time 24.5 hours): 0.518 mg/mL | Cabazitaxel concentration ([1]; third dilution (0.510 mg/mL at 0 h), time 36 hours): 0.512 mg/mL | Cabazitaxel concentration ([1]; third dilution (0.510 mg/mL at 0 h), time 45 hours): 0.517 mg/mL | Cabazitaxel concentration ([1]; third dilution (0.510 mg/mL at 0 h), time 100 hours): 0.512 mg/mL | Cabazitaxel concentration ([1]; third dilution (0.510 mg/mL at 0 h), time 120 hours): 0.518 mg/mL | solubility thermodynamic at 16 h ([2]; aqueous SBECD 1%): 270 µg/mL (≈ 323 µM) | solubility thermodynamic at 16 h ([2]; aqueous SBECD 2%): 460 µg/mL (≈ 550 µM) | solubility thermodynamic at 16 h ([2]; aqueous SBECD 10%): 990 µg/mL (≈ 1180 µM) | solubility thermodynamic at 16 h ([2]; aqueous SBECD 20%): 2280 µg/mL (≈ 2730 µM) | solubility thermodynamic at 16 h ([2]; aqueous SBECD 40%): 4170 µg/mL (≈ 4990 µM)
